Measurements taken from PubChem BioAssay AID330 (DTP/NCI, 2004).
“And” between values parts separate entries of the source, which are not always exact repeats. Identical values can stand only once. Inconclusive results and toxic doses are left out.

Tested on: P388 leukemia ip, CD2F1 mice, survival T/C
Assay: NCI In Vivo Anticancer Drug Screen. Data for tumor model P388 Leukemia (intraperitoneal) in CD2F1 (CDF1) mice
Details: endpoint: median survival time, higher = longer survival
How it was run: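 Mice carrying the transplanted tumor received test compound or vehicle. Survival was recorded in each group, and the value is the treated-group measurement divided by that of the vehicle-treated control group.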

[1] = dose: 100.0 mg/kg/injection, schedule: Q04DX003 (ip), vehicle: saline with Tween-80
[2] = dose: 200.0 mg/kg/injection, schedule: Q04DX003 (ip), vehicle: saline with Tween-80
[3] = dose: 60.0 mg/kg/injection, schedule: Q01DX005 (ip), vehicle: saline with Tween-80
[4] = dose: 120.0 mg/kg/injection, schedule: Q01DX005 (ip), vehicle: saline with Tween-80
[5] = dose: 240.0 mg/kg/injection, schedule: Q01DX005 (ip), vehicle: saline with Tween-80
[6] = dose: 12.5 mg/kg/injection, schedule: Q01DX009 (ip), vehicle: Klucel (hydroxypropylcellulose) (HPC)
[7] = dose: 25.0 mg/kg/injection, schedule: Q01DX009 (ip), vehicle: Klucel (hydroxypropylcellulose) (HPC)
[8] = dose: 50.0 mg/kg/injection, schedule: Q01DX009 (ip), vehicle: Klucel (hydroxypropylcellulose) (HPC)
[9] = dose: 100.0 mg/kg/injection, schedule: Q01DX009 (ip), vehicle: Klucel (hydroxypropylcellulose) (HPC)
[10] = dose: 200.0 mg/kg/injection, schedule: Q01DX009 (ip), vehicle: Klucel (hydroxypropylcellulose) (HPC)
[11] = dose: 50.0 mg/kg/injection, schedule: Q01DX009 (ip), vehicle: saline
[12] = dose: 100.0 mg/kg/injection, schedule: Q01DX009 (ip), vehicle: saline
[13] = dose: 200.0 mg/kg/injection, schedule: Q01DX009 (ip), vehicle: saline
[14] = dose: 50.0 mg/kg/injection, schedule: Q04DX003 (ip), vehicle: saline with Tween-80

COc1cc2c(c(OC)c1OC)-c1ccc(SC)c(=O)cc1[C@@H](NC(=O)CO)CC2
T/C (dose: 0.1 mg/kg/injection, schedule: Q01DX009 (ip), vehicle: other): 150 % of control | T/C (dose: 0.2 mg/kg/injection, schedule: Q01DX009 (ip), vehicle: other): 157 % of control and 172 % of control

O=S(=O)(n1ccnc1)C(F)(F)F
T/C (dose: 12.5 mg/kg/injection, schedule: Q01DX001 (ip), vehicle: saline): 101 % of control | T/C (dose: 25.0 mg/kg/injection, schedule: Q01DX001 (ip), vehicle: saline): 96 % of control | T/C (dose: 50.0 mg/kg/injection, schedule: Q01DX001 (ip), vehicle: saline): 96 % of control

CCOP(=O)(Nc1cc2c(=O)n(C)cnc2cc1Cl)OCC
T/C [1]: 105 % of control | T/C [2]: 100 % of control

O=C(O)c1cccc2c1C1CCC2c2cccc(C(=O)O)c21
T/C (dose: 100.0 mg/kg/injection, schedule: Q04DX003 (ip), vehicle: Klucel (hydroxypropylcellulose) (HPC)): 108 % of control | T/C (dose: 200.0 mg/kg/injection, schedule: Q04DX003 (ip), vehicle: Klucel (hydroxypropylcellulose) (HPC)): 107 % of control | T/C (dose: 400.0 mg/kg/injection, schedule: Q04DX003 (ip), vehicle: Klucel (hydroxypropylcellulose) (HPC)): 106 % of control

C=C(C)CCP(=S)(OCC)OCC
T/C [3]: 102 % of control | T/C [4]: 101 % of control | T/C [5]: 100 % of control

c1cc[c]([Bi]([c]2ccccc2)[c]2ccccc2)cc1
T/C [6]: 103 % of control | T/C [7]: 106 % of control | T/C [8]: 101 % of control and 112 % of control

O=S(=O)(CC(O)C(Cl)(Cl)Cl)N(Cc1ccccc1)Cc1ccccc1 (configuration not stated)
T/C [8]: 103 % of control | T/C [9]: 103 % of control | T/C [10]: 97 % of control

COc1c2c(cc3oc(=O)ccc13)OC(C)(C)C=C2
T/C (dose: 12.0 mg/kg/injection, schedule: Q01DX005 (ip), vehicle: saline with Tween-80): 107 % of control | T/C (dose: 24.0 mg/kg/injection, schedule: Q01DX005 (ip), vehicle: saline with Tween-80): 98 % of control | T/C (dose: 48.0 mg/kg/injection, schedule: Q01DX005 (ip), vehicle: saline with Tween-80): 105 % of control | T/C (dose: 96.0 mg/kg/injection, schedule: Q01DX005 (ip), vehicle: saline with Tween-80): 100 % of control

CCNC(=O)OCCN(CC)CC
T/C [11]: 103 % of control | T/C [12]: 103 % of control | T/C [13]: 104 % of control

CCCCCCC[CH2][Sn]([F])([F])[CH2]CCCCCCC
T/C (dose: 12.5 mg/kg/injection, schedule: Q04DX003 (ip), vehicle: saline): 102 % of control | T/C (dose: 25.0 mg/kg/injection, schedule: Q04DX003 (ip), vehicle: saline): 106 % of control and 108 % of control | T/C (dose: 50.0 mg/kg/injection, schedule: Q04DX003 (ip), vehicle: saline): 106 % of control and 116 % of control | T/C (dose: 100.0 mg/kg/injection, schedule: Q04DX003 (ip), vehicle: saline): 101 % of control and 109 % of control and 121 % of control

CNC(=O)C1CCC(=O)N1Cc1c[nH]c2ccccc12 (configuration not stated)
T/C [3]: 94 % of control | T/C [4]: 94 % of control | T/C [5]: 92 % of control

CN1CCC(c2ccccc2)C(O)C1 (configuration not stated)
T/C [3]: 106 % of control | T/C [4]: 105 % of control | T/C [5]: 103 % of control

OCCO
T/C [12]: 86 % of control and 90 % of control | T/C [13]: 100 % of control and 86 % of control | T/C (dose: 400.0 mg/kg/injection, schedule: Q01DX009 (ip), vehicle: saline): 104 % of control and 100 % of control | T/C (dose: 0.5 % in 0.5 ml injection vol, schedule: Q01DX009 (ip), vehicle: water): 98 % of control | T/C (dose: 1.0 % in 0.5 ml injection vol, schedule: Q01DX009 (ip), vehicle: water): 99 % of control and 107 % of control | T/C (dose: 2.0 % in 0.5 ml injection vol, schedule: Q01DX009 (ip), vehicle: water): 100 % of control and 102 % of control | T/C (dose: 2.5 % in 0.5 ml injection vol, schedule: Q01DX009 (ip), vehicle: water): 106 % of control | T/C (dose: 4.0 % in 0.5 ml injection vol, schedule: Q01DX009 (ip), vehicle: water): 94 % of control | T/C (dose: 5.0 % in 0.5 ml injection vol, schedule: Q01DX009 (ip), vehicle: water): 105 % of control | T/C (dose: 10.0 % in 0.5 ml injection vol, schedule: Q01DX009 (ip), vehicle: water): 103 % of control | T/C (dose: 20.0 % in 0.5 ml injection vol, schedule: Q01DX009 (ip), vehicle: water): 108 % of control | T/C (dose: 40.0 % in 0.5 ml injection vol, schedule: Q01DX009 (ip), vehicle: water): 100 % of control | T/C (dose: 50.0 % in 0.5 ml injection vol, schedule: Q01DX009 (ip), vehicle: water): 107 % of control | T/C (dose: 80.0 % in 0.5 ml injection vol, schedule: Q01DX009 (ip), vehicle: water): 100 % of control

COc1ccc2c(c1)CCC1(C)CC(=O)C(Br)=C21 (configuration not stated)
T/C (dose: 6.25 mg/kg/injection, schedule: Q01DX009 (ip), vehicle: Klucel (hydroxypropylcellulose) (HPC)): 109 % of control and 112 % of control and 114 % of control | T/C [6]: 100 % of control and 107 % of control and 114 % of control | T/C [7]: 102 % of control and 107 % of control | T/C [8]: 106 % of control

O=C(O)C(Cc1ccc(O)cc1)NC(c1ccccc1)P(=O)(O)O (configuration not stated)
T/C [3]: 108 % of control | T/C [4]: 98 % of control | T/C [5]: 99 % of control

Cn1c(=O)ccc2ccc(N(CCO)CCO)nc21
T/C [14]: 98 % of control | T/C [1]: 94 % of control | T/C [2]: 103 % of control

CCOC(=O)C(O)(CC)CCC(C)C (configuration not stated)
T/C [14]: 100 % of control | T/C [1]: 100 % of control | T/C [2]: 100 % of control

CCN(CC)CC.[CH-]1CCCCC1.[CH-]1CCCCC1.[CH-]1CCCCC1.[Cl-].[Cl-].[Sn+4]
T/C (dose: 3.12 mg/kg/injection, schedule: Q01DX005 (ip), vehicle: saline with Tween-80): 107 % of control | T/C (dose: 6.25 mg/kg/injection, schedule: Q01DX005 (ip), vehicle: saline with Tween-80): 110 % of control

O=C1O/C(=C(/C(=O)O)c2ccc(O)cc2)C(O)=C1c1cc2c3c(c(O)cc(C4=C(O)/C(=C(\C(=O)O)c5ccc(O)cc5)OC4=O)c3c1)OC2=O
T/C (dose: 10.25 mg/kg/injection, schedule: Q01DX005 (ip), vehicle: DMSO): 94 % of control | T/C (dose: 12.0 mg/kg/injection, schedule: Q01DX005 (ip), vehicle: DMSO): 98 % of control | T/C (dose: 20.5 mg/kg/injection, schedule: Q01DX005 (ip), vehicle: DMSO): 110 % of control | T/C (dose: 24.0 mg/kg/injection, schedule: Q01DX005 (ip), vehicle: DMSO): 106 % of control | T/C (dose: 41.0 mg/kg/injection, schedule: Q01DX005 (ip), vehicle: DMSO): 106 % of control

O=C(O)c1ccc(Oc2nc3ccccc3s2)cc1
T/C [14]: 91 % of control | T/C [1]: 91 % of control

C=C(C(N)=O)C(N)C(=O)O (configuration not stated)
T/C [3]: 120 % of control

CCCCCCCCC[N+]1([O-])CCOCC1
T/C [11]: 100 % of control | T/C [12]: 97 % of control | T/C [13]: 88 % of control

O=c1oc(-c2cccc(I)c2)ns1
T/C [9]: 111 % of control | T/C [10]: 114 % of control

COc1ccc2c(c1)CCc1c(N)ncnc1-2
T/C (dose: 100.0 mg/kg/injection, schedule: Q04DX002 (ip), vehicle: saline with Tween-80): 104 % of control | T/C (dose: 200.0 mg/kg/injection, schedule: Q04DX002 (ip), vehicle: saline with Tween-80): 106 % of control | T/C (dose: 400.0 mg/kg/injection, schedule: Q04DX002 (ip), vehicle: saline with Tween-80): 107 % of control

Cn1nnnc1NN(c1nnnn1C)C1C=CCC=C1
T/C [1]: 99 % of control | T/C [2]: 97 % of control | T/C (dose: 400.0 mg/kg/injection, schedule: Q04DX003 (ip), vehicle: saline with Tween-80): 98 % of control

O=C(Cn1cnc2c(=S)nc[nH]c21)Oc1ccc([N+](=O)[O-])cc1
T/C (dose: 12.5 mg/kg/injection, schedule: Q01DX009 (ip), vehicle: saline with Tween-80): 109 % of control | T/C (dose: 25.0 mg/kg/injection, schedule: Q01DX009 (ip), vehicle: saline with Tween-80): 100 % of control | T/C (dose: 25.0 mg/kg/injection, schedule: Q04DX003 (ip), vehicle: saline with Tween-80): 91 % of control | T/C (dose: 50.0 mg/kg/injection, schedule: Q01DX009 (ip), vehicle: saline with Tween-80): 100 % of control | T/C [14]: 91 % of control

COc1ccccc1N=C(NC#N)C(c1ccccc1)c1ccccc1
T/C (dose: 100.0 mg/kg/injection, schedule: Q01DX001 (ip), vehicle: saline with Tween-80): 99 % of control | T/C (dose: 200.0 mg/kg/injection, schedule: Q01DX001 (ip), vehicle: saline with Tween-80): 97 % of control | T/C (dose: 400.0 mg/kg/injection, schedule: Q01DX001 (ip), vehicle: saline with Tween-80): 93 % of control
